Consider 34 compounds from patent publication US11319315B2, “Cyclohexyl acid triazole azoles as LPA antagonists” (BRISTOL-MYERS SQUIBB COMPANY, priority 2017, dated 2022).

Where a name gives a salt, the structure may show the parent alone.

The target of one experiment is T1, human LPA1 (Homo sapiens, UniProt Q92633).
T1 construct: expressed in transfected cells; host or cells: Chinese hamster ovary (CHO) cells
T1 sequence (Q92633 whole entry): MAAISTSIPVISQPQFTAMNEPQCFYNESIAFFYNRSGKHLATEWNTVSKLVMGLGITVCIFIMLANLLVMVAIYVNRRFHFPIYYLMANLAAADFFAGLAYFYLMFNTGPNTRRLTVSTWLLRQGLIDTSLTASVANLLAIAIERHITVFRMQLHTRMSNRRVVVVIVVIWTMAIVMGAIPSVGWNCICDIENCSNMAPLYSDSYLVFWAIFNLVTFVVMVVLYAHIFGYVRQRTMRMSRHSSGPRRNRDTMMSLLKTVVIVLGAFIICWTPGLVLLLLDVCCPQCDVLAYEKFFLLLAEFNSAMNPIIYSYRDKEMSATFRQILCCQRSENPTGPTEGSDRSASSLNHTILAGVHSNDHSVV
Description: LPA1 functional antagonist assay (LPA-induced calcium flux in CHO cells overexpressing human LPA1). It is filed as cell-based. Conditions: inhibition of calcium flux induced by 10 nM LPA, CHO cells overexpressing human LPA1; read-out: hLPA1 IC50. An outline of the steps: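 Calcium flux was triggered by 10 nM LPA after 20 min room-temperature compound pre-incubation (final 0.08 nM to 5 μM, 0.5% DMSO) in human LPA1-overexpressing CHO cells carrying calcium dye. Buffer: HBSS with Ca/Mg, 20 mM HEPES, 0.1% fatty-acid-free BSA; IC50s from 4-parameter logistic fits.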
In general terms: Calcium assays in cells follow changes in intracellular calcium, usually with a dye or a luminescent sensor.
Turning to `Cc1nc(-c2nnn(C)c2Cn2nnc(C3CCCC3)n2)ccc1O[C@H]1CCC[C@H](C(=O)O)C1` [Example 329, (1S,3S)-3-((6-(5-((5-cyclopentyl-2H-tetrazol-2-yl)methyl)-1-methyl-1H-1,2,3-triazol-4-yl)-2-methylpyridin-3-yl)oxy)cyclo-hexane-1-carboxylic acid], the IC50 (as a rule, the concentration at which inhibition is half-maximal) was 14 nM.

As to `CCc1nc(-c2nnn(C)c2Cn2cc(Cc3ccccc3)nn2)ccc1O[C@H]1CCC[C@H](C(=O)O)C1` [Example 95], the IC50 amounted to 7 nM.

Regarding `Cc1nc(-c2nnn(C)c2CNc2cc(C(C)C)no2)ccc1O[C@H]1CCC[C@H](C(=O)O)C1` [Example 168], the IC50 came to 84 nM.

Consider `Cc1nc(-c2nnn(C)c2CNc2nc(C)c(C)s2)ccc1O[C@H]1CCC[C@H](C(=O)O)C1` [Example 26], for which the IC50 amounted to 3650 nM.

Turning to `Cc1nc(-c2nnn(C)c2CNc2cnn(-c3ccc(F)cc3)n2)ccc1O[C@H]1CCC[C@H](C(=O)O)C1` [Example 33, (1 S,3 S)-3-((6-(5-(((2-(4-fluorophenyl)-2H-1,2,3-triazol-4-yl)amino)methyl)-1-methyl-1H-1,2,3-triazol-4-yl)-2-methylpyridin-3-yl)oxy)cyclohexane-1-carboxylic acid], the concentration for half-maximal inhibition (IC50) is 84 nM.

Regarding `CCc1nc(-c2nnn(C)c2Cn2cc(CC3CC3)nn2)ccc1O[C@H]1CCC[C@H](C(=O)O)C1` [Example 97], the IC50 was found to be 8 nM.

Turning to `Cc1nc(-c2nnn(C)c2Cc2noc(CC(C)C)n2)ccc1O[C@H]1CCC[C@H](C(=O)O)C1` [Example 234, (1S,3S)-3-((6-(5-((5-isobutyl-1,2,4-oxadiazol-3-yl)methyl)-1-methyl-1H-1,2,3-triazol-4-yl)-2-methylpyridin-3-yl)oxy)cyclohexane-1-carboxylic acid], the half-maximal inhibitory concentration (IC50) was determined as 52 nM.

Consider `Cc1nc(-c2nnn(C)c2Cc2noc(CCC(F)(F)F)n2)ccc1O[C@H]1CCC[C@H](C(=O)O)C1` [Example 240], for which the IC50 was 61 nM.

Take `Cc1nc(-c2nnn(C)c2CNc2noc(C3CCCO3)n2)ccc1O[C@H]1CCC[C@H](C(=O)O)C1` (mixture of isomers) [Example 221, (1S,3S)-3-((2-methyl-6-(1-methyl-5-(((5-(tetrahydrofuran-2-yl)-1,2,4-oxadiazol-3-yl)amino)methyl)-1H-1,2,3-triazol-4-yl)pyridin-3-yl)oxy) cyclohexane-1-carboxylic acid]: the IC50 was determined as 221 nM.

In the case of `Cc1nc(-c2nnn(C)c2CNc2nc(-c3ccccc3)cs2)ccc1O[C@H]1CCC[C@H](C(=O)O)C1` [Example 14], the IC50 came to 130 nM.

For the compound `Cc1nc(-c2nnn(C)c2CNc2cnn(C(C)C)n2)ccc1O[C@H]1CCC[C@H](C(=O)O)C1` [Example 124], the IC50 worked out at 337 nM.

Turning to `CCCO[C@H](C)c1nc(NCc2c(-c3ccc(O[C@H]4CCC[C@H](C(=O)O)C4)c(C)n3)nnn2C)no1` [Example 219, (1S,3S)-3-((2-methyl-6-(1-methyl-5-(((5-((R)-1-propoxyethyl)-1,2,4-oxadiazol-3-yl)amino)methyl)-1H-1,2,3-triazol-4-yl)pyridin-3-yl)oxy)cyclohexane-1-carboxylic acid], the IC50 amounted to 63 nM.

In the case of `CC[C@@H](OC)c1nc(NCc2c(-c3ccc(O[C@H]4CCC[C@H](C(=O)O)C4)c(C)n3)nnn2C)no1` (single isomer, unassigned) [Example 216], the concentration for half-maximal inhibition (IC50) worked out at 121 nM.

`Cc1nc(-c2nnn(C)c2Cc2noc(CCC(C)C)n2)ccc1O[C@H]1CCC[C@H](C(=O)O)C1` [Example 229, (1S,3S)-3-((6-(5-((5-isopentyl-1,2,4-oxadiazol-3-yl)methyl)-1-methyl-1H-1,2,3-triazol-4-yl)-2-methylpyridin-3-yl)oxy)cyclohexane-1-carboxylic acid]: the IC50 was determined as 11 nM.

As to `Cc1nc(-c2nnn(C)c2COc2noc(C3CC3)n2)ccc1O[C@H]1CCC[C@H](C(=O)O)C1` [Example 134], the IC50 was found to be 25 nM.

With `Cc1nc(-c2nnn(C)c2Cc2noc(CCC(C)(F)F)n2)ccc1O[C@H]1CCC[C@H](C(=O)O)C1` [Example 227, (1 S,3 S)-3-((6-(5-((5-(3,3-difluorobutyl)-1,2,4-oxadiazol-3-yl)methyl)-1-methyl-1H-1,2,3-triazol-4-yl)-2-methylpyridin-3-yl)oxy)cyclohexane-1-carboxylic acid], the IC50 amounted to 2 nM.

As for `Cc1nc(-c2nnn(C)c2Nc2nnc(CC3CC3)o2)ccc1O[C@H]1CCC[C@H](C(=O)O)C1` [Example 276, (1 S,3S)-3-((6-(5-((5-(Cyclopropylmethyl)-1,3,4-oxadiazol-2-yl)amino)-1-methyl-1H-1,2,3-triazol-4-yl)-2-methylpyridin-3-yl)oxy)cyclohexane-1-carboxylic acid, 2 TFA salt], the IC50 worked out at 446 nM.

On to `Cn1nnc(-c2ccc(O[C@H]3CCC[C@H](C(=O)O)C3)c(C#N)n2)c1Cn1cc(CC2CCCC2)nn1` [Example 93], for which the IC50 was 60 nM.

For the compound `CCCCc1nc(Nc2c(-c3ccc(O[C@H]4CCC[C@H](C(=O)O)C4)c(C)n3)nnn2C)no1` [Example 275, (1 S,3 S)-3-((6-(5-((5-Butyl-1,2,4-oxadiazol-3-yl)amino)-1-methyl-1H-1,2,3-triazol-4-yl)-2-methylpyridin-3-yl)oxy)cyclohexane-1-carboxylic acid, 2 TFA salt], the IC50 was 18 nM.

`CCCCc1nnnn1Cc1c(-c2ccc(O[C@H]3CCC[C@H](C(=O)O)C3)cn2)nnn1C` [Example 256, (1S,3S)-3-((6-(5-((5-butyl-1H-tetrazol-1-yl)methyl)-1-methyl-1H-1,2,3-triazol-4-yl)pyridin-3-yl)oxy)cyclohexane-1-carboxylic acid]: the IC50 is 111 nM.

Consider `Cc1nc(-c2nnn(C)c2Cn2nnc(CCC(C)C)n2)ccc1O[C@H]1CCC[C@H](C(=O)O)C1` [Example 310, (1S,3S)-3-{[2-methyl-6-(1-methyl-5-{[5-(3-methylbutyl)-2H-1,2,3,4-tetrazol-2-yl]methyl}-1H-1,2,3-triazol-4-yl)pyridin-3-yl]oxy}cyclohexane-1-carboxylic acid], for which the 50% inhibitory concentration (IC50) amounted to 24 nM.

For `Cc1nc(-c2nnn(C)c2Cn2cc(C(=O)c3ccccc3)nn2)ccc1O[C@H]1CCC[C@H](C(=O)O)C1` [Example 85], the IC50 amounted to 241 nM.

As to `Cc1nc(-c2nnn(C)c2CNc2nc(CCC(C)C)no2)ccc1O[C@H]1CCC[C@H](C(=O)O)C1` [Example 158], the IC50 amounted to 21 nM.

As to `Cc1nc(-c2nnn(C)c2CNc2noc(CCC3CCC3)n2)c(F)cc1O[C@H]1CCC[C@H](C(=O)O)C1` [Example 278, (1S,3S)-3-((6-(5-(((5-(2-cyclobutylethyl)-1,2,4-oxadiazol-3-yl)amino)methyl)-1-methyl-1H-1,2,3-triazol-4-yl)-5-fluoro-2-methylpyridin-3-yl)oxy)cyclohexane-1-carboxylic acid], the half-inhibitory concentration (IC50) is 30 nM.

As to `Cc1nc(-c2nnn(C)c2CNc2nc(C3CCC3)ns2)ccc1O[C@H]1CCC[C@H](C(=O)O)C1` [Example 99], the 50% inhibitory concentration (IC50) worked out at 73 nM.

Regarding `Cc1nc(-c2nnn(C)c2CNc2ncc(-c3ccccc3)s2)ccc1O[C@H]1CCC[C@H](C(=O)O)C1` [Example 16], the half-maximal inhibitory concentration (IC50) is 67 nM.

In the case of `CCCO[C@@H](C)c1nc(NCc2c(-c3ccc(O[C@H]4CCC[C@H](C(=O)O)C4)c(C)n3)nnn2C)no1` [Example 220], the concentration for half-maximal inhibition (IC50) is 160 nM.

`Cc1nc(-c2nnn(C)c2Cn2nncc2CC(C)C)ccc1O[C@H]1CCC[C@H](C(=O)O)C1` [Example 261, (1S,3S)-3-((6-(5-((5-isobutyl-1H-1,2,3-triazol-1-yl)methyl)-1-methyl-1H-1,2,3-triazol-4-yl)-2-methyl-pyridin-3-yl)oxy)cyclohexane-1-carboxylic acid]: the IC50 worked out at 115 nM.

In the case of `Cc1nc(-c2nnn(C)c2CNc2ncn(CC3CC3)n2)ccc1O[C@H]1CCC[C@H](C(=O)O)C1` [Example 152], the IC50 came out at 179 nM.

Staying with this experiment, now noted: read-out: hLPA1 IC50.
`Cc1nc(-c2nnn(C)c2CN(CC2CC2)c2nnn(CC3CC3)n2)ccc1O[C@H]1CCC[C@H](C(=O)O)C1` [Example 377, (1S,3S)-3-((6-(5-(((cyclopropyl-methyl)(2-(cyclopropylmethyl)-2H-tetrazol-5-yl)amino)methyl)-1-methyl-1H-1,2,3-triazol-4-yl)-2-methylpyridin-3-yl)oxy)cyclohexane-1-carboxylic acid]: the half-inhibitory concentration (IC50) worked out at 1240 nM.

Consider `Cc1nc(-c2nnn(C)c2Cn2nnc(NCc3ccccc3)n2)ccc1O[C@H]1CCC[C@H](C(=O)O)C1` [Example 368, (1S,3S)-3-((6-(5-((5-(benzylamino)-2H-tetrazol-2-yl)methyl)-1-methyl-1H-1,2,3-triazol-4-yl)-2-methyl-pyridin-3-yl)oxy)cyclohexane-1-carboxylic acid], for which the IC50 came to 1020 nM.

Take `Cc1nc(-c2nnn(C)c2Cc2nnn(CC3CC3)n2)ccc1O[C@H]1CCC[C@H](C(=O)O)C1` [Example 360, (1S,3S)-3-((6-(5-((2-(cyclopropyl-methyl)-2H-tetrazol-5-yl)methyl)-1-methyl-1H-1,2,3-triazol-4-yl)-2-methylpyridin-3-yl)oxy)cyclo-hexane-1-carboxylic acid]: the IC50 came out at 92 nM.

Turning to `Cc1nc(-c2nnn(C)c2CNc2nnn(Cc3ccccc3)n2)ccc1O[C@H]1CCC[C@H](C(=O)O)C1` [Example 391, (1S,3S)-3-((6-(5-(((2-benzyl-2H-tetrazol-5-yl)amino)methyl)-1-methyl-1H-1,2,3-triazol-4-yl)-2-methylpyridin-3-yl)oxy)cyclo-hexane-1-carboxylic acid], the IC50 was determined as 23 nM.

For the compound `Cc1nc(-c2nnn(C)c2Cn2nnc(C3CC3)n2)ccc1O[C@H]1CCC[C@H](C(=O)O)C1` [Example 412, (1S,3S)-3-((6-(5-((5-cyclopropyl-2H-tetrazol-2-yl)methyl)-1-methyl-1H-1,2,3-triazol-4-yl)-2-methyl-pyridin-3-yl)oxy)cyclohexane-1-carboxylic acid], the IC50 was 384 nM.
